Experimental data taken from ChEMBL document CHEMBL5321235, “Design, synthesis, and SAR study of novel flavone 1,2,4-oxadiazole derivatives with anti-inflammatory activities for the treatment of Parkinson's disease” (Eur J Med Chem, 2023).
Activity calls are given as the source filed them. No cut-off for these calls is given here.

Columns and labels:
Mus musculus [1] = test: Antiinflammatory activity in C57BL/6J mouse assessed as inhibition of MPTP-induced NF-kappaB phosphorylation at 15 mg/kg, ip administered with compound once daily for 2 weeks followed by MPTP addition on day 8 and measured after 2 weeks of compound addition Western blot analysis; format: functional, organism-based
BV-2 [2] = test: Induction of apoptosis in LPS-induced mouse BV-2 cells assessed as increase in Bcl-2 expression at 5 to 10 uM pretreated for 18 hrs followed by LPS-stimulation and measured after 6 hrs by immunofluorescence analysis; format: functional, cell-based; settings: dose 5-10 µM, time 24.0 hrs
Mus musculus [3] = test: Antiinflammatory activity in C57BL/6J mouse assessed as inhibition of MPTP-induced ERK phosphorylation at 15 mg/kg, ip administered with compound once daily for 2 weeks followed by MPTP addition on day 8 and measured after 2 weeks of compound addition Western blot analysis; format: functional, organism-based
BV-2 [4] = test: Induction of apoptosis in LPS-induced mouse BV-2 cells assessed as increase in Caspase3 expression at 5 to 10 uM pretreated for 18 hrs followed by LPS-stimulation and measured after 6 hrs by Western blot analysis; format: functional, cell-based; settings: dose 5-10 µM, time 24.0 hrs
[5] = target: MAP kinase p38 (Mus musculus) (UniProt P47811+O08911+Q9WUI1+Q9Z1B7); test: Inhibition of LPS-induced p38 phosphorylation in mouse BV-2 cells at 5 to 10 uM pretreated for 12 hrs followed by LPS-stimulation and measured after 6 hrs by Western blot analysis; format: cell-based; settings: dose 5-10 µM, time 18.0 hrs
BV-2 [6] = test: Inhibition of LPS-induced ERK phosphorylation in mouse BV-2 cells at 5 to 10 uM pretreated for 12 hrs followed by LPS-stimulation and measured after 6 hrs by Western blot analysis; format: cell-based; settings: dose 5-10 µM, time 18.0 hrs
Microglia [7] = test: Neuroprotective activity against MPTP-induced apoptosis in mouse microglia assessed as increase in Bcl2 expression in brain tissue at 15 mg/kg, ip administered with compound once daily for 2 weeks followed by MPTP addition on day 8 and measured after 2 weeks of compound addition by Western blot analysis; format: functional, organism-based
BV-2 [8] = test: Antiinflammatory activity in LPS-induced mouse BV-2 cells assessed as increase in Arg-1 mRNA expression at 5 to 10 uM pretreated for 18 hrs followed by LPS-stimulation and measured after 6 hrs by qRT-PCR analysis; format: functional, cell-based; settings: dose 5-10 µM, time 24.0 hrs
BV-2 [9] = test: Antiinflammatory activity in LPS-induced mouse BV-2 cells assessed as reduction in TNF-alpha mRNA expression at 5 to 10 uM pretreated for 18 hrs followed by LPS-stimulation and measured after 6 hrs by qRT-PCR analysis; format: functional, cell-based; settings: dose 5-10 µM, time 24.0 hrs
BV-2 [10] = test: Induction of apoptosis in LPS-induced mouse BV-2 cells assessed as increase in Caspase3 expression at 5 to 10 uM pretreated for 18 hrs followed by LPS-stimulation and measured after 6 hrs by immunofluorescence analysis; format: functional, cell-based; settings: dose 5-10 µM, time 24.0 hrs
BV-2 [11] = test: Antiinflammatory activity in LPS-induced mouse BV-2 cells assessed as reduction in IL-1beta mRNA expression at 5 to 10 uM pretreated for 18 hrs followed by LPS-stimulation and measured after 6 hrs by qRT-PCR analysis; format: functional, cell-based; settings: dose 5-10 µM, time 24.0 hrs
[12] = target: c-Jun N-terminal kinase (Mus musculus) (UniProt Q91Y86+Q9WTU6+Q61831); test: Inhibition of LPS-induced JNK phosphorylation in mouse BV-2 cells at 5 to 10 uM pretreated for 12 hrs followed by LPS-stimulation and measured after 6 hrs by Western blot analysis; format: cell-based; settings: dose 5-10 µM, time 18.0 hrs
Mus musculus [13] = test: Antiinflammatory activity in C57BL/6J mouse assessed as inhibition of MPTP-induced p38 phosphorylation at 15 mg/kg, ip administered with compound once daily for 2 weeks followed by MPTP addition on day 8 and measured after 2 weeks of compound addition Western blot analysis; format: functional, organism-based
Microglia [14] = test: Neuroprotective activity against MPTP-induced apoptosis in mouse microglia assessed as […] expression in brain tissue at 15 mg/kg, ip administered with compound once daily for 2 weeks followed by MPTP addition on day 8 and measured after 2 weeks of compound addition; format: functional, organism-based
BV-2 [15] = test: Antiinflammatory activity in LPS-induced mouse BV-2 cells assessed as increase in CD206 mRNA expression at 5 to 10 uM pretreated for 18 hrs followed by LPS-stimulation and measured after 6 hrs by qRT-PCR analysis; format: functional, cell-based; settings: dose 5-10 µM, time 24.0 hrs
Mus musculus [16] = test: Anti-parkinson activity in MPTP-induced C57BL/6J mouse model assessed as increase in locomotion at 15 to 35 mg/kg, ip administered with compound once daily for 2 weeks followed by MPTP addition on day 8 and measured after 2 weeks of compound addition by open field test; format: functional, organism-based; settings: dose 15-35 mg/kg
BV-2 [17] = test: Antiinflammatory activity in LPS-induced mouse BV-2 cells assessed as reduction in IL-6 mRNA expression at 5 to 10 uM pretreated for 18 hrs followed by LPS-stimulation and measured after 6 hrs by qRT-PCR analysis; format: functional, cell-based; settings: dose 5-10 µM, time 24.0 hrs
BV-2 [18] = test: Cytotoxicity against mouse BV-2 cells assessed as reduction in cell viability at 10 uM pretreated for 18 hrs followed by LPS-stimulation and measured after 6 hrs by MTT assay; format: toxicity, cell-based; settings: bv-2, 24 h
Mus musculus [19] = test: Antiinflammatory activity in MPTP-induced C57BL/6J mouse assessed as increase in IL-10 expression at 15 mg/kg, ip administered with compound once daily for 2 weeks followed by MPTP addition on day 8 and measured after 2 weeks of compound addition Western blot analysis; format: functional, organism-based
BV-2 [20] = test: Antiinflammatory activity in LPS-induced mouse BV-2 cells assessed as reduction in CD86 mRNA expression at 5 to 10 uM pretreated for 18 hrs followed by LPS-stimulation and measured after 6 hrs by qRT-PCR analysis; format: functional, cell-based; settings: dose 5-10 µM, time 24.0 hrs
BV-2 [21] = test: Induction of apoptosis in mouse LPS-induced BV-2 cells assessed as increase in cleaved Caspase-3 expression at 5 to 10 uM pretreated for 18 hrs followed by LPS-stimulation and measured after 6 hrs by Western blot analysis; format: functional, cell-based; settings: dose 5-10 µM, time 24.0 hrs
BV-2 [22] = test: Antiinflammatory activity in mouse BV-2 cells assessed as inhibition of LPS-induced NO production at 5 uM pretreated for 18 hrs followed by LPS-induction and measured after 6 hrs relative to control; format: functional; set-up: scale not given: the % may be the effect or the level left; settings: time 24 hrs
BV-2 [23] = test: Inhibition of LPS-induced NF-kappaB nuclear translocation in mouse BV-2 cells at 5 to 10 uM pretreated for 18 hrs followed by LPS-stimulation and measured after 6 hrs by immunofluorescence analysis; format: cell-based; settings: dose 5-10 µM, time 24.0 hrs
BV-2 [24] = test: Antiinflammatory activity in LPS-induced mouse BV-2 cells assessed as increase in IL-10 mRNA expression at 5 to 10 uM pretreated for 18 hrs followed by LPS-stimulation and measured after 6 hrs by qRT-PCR analysis; format: functional, cell-based; settings: dose 5-10 µM, time 24.0 hrs
BV-2 [25] = test: Inhibition of NF-kappaB activation in LPS-stimulated mouse BV-2 cells assessed as increase in IkappaBalpha expression at 5 to 10 uM pretreated for 18 hrs followed by LPS-stimulation and measured after 6 hrs by Western blot analysis; format: cell-based; settings: dose 5-10 µM, time 24.0 hrs
BV-2 [26] = test: Induction of apoptosis in LPS-induced mouse BV-2 cells assessed as increase in Bcl-2 mRNA expression at 5 to 10 uM pretreated for 18 hrs followed by LPS-stimulation and measured after 6 hrs by qRT-PCR analysis; format: functional, cell-based; settings: dose 5-10 µM, time 24.0 hrs
BV-2 [27] = test: Induction of apoptosis in LPS-induced mouse BV-2 cells assessed as increase in BAX expression at 5 to 10 uM pretreated for 18 hrs followed by LPS-stimulation and measured after 6 hrs by immunofluorescence analysis; format: functional, cell-based; settings: dose 5-10 µM, time 24.0 hrs

Chain of c-Jun N-terminal kinase (Mus musculus) (Q61831 whole entry, looked up): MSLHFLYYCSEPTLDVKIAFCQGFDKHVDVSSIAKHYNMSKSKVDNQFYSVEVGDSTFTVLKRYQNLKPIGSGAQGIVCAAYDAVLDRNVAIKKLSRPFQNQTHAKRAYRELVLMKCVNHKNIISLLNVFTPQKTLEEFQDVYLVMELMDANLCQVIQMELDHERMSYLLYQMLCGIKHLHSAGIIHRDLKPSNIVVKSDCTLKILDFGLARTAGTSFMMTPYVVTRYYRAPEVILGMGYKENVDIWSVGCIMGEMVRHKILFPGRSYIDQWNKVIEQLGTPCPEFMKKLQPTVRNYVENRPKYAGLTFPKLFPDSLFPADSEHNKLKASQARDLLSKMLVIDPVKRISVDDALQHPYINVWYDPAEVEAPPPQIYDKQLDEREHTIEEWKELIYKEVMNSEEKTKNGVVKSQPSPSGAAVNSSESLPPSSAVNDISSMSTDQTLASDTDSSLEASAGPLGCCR
Chain of c-Jun N-terminal kinase (Mus musculus) (Q91Y86 whole entry, looked up): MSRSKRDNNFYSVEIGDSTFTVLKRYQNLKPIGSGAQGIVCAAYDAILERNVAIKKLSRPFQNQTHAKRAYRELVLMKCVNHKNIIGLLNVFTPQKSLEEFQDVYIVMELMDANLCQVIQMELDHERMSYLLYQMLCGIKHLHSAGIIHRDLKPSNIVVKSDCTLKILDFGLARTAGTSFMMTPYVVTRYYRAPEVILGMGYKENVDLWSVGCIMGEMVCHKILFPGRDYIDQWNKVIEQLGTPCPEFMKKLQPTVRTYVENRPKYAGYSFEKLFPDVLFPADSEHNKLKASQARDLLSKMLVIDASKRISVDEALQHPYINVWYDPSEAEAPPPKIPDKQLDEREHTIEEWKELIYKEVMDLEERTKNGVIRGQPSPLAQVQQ
Chain of c-Jun N-terminal kinase (Mus musculus) (Q9WTU6 whole entry, looked up): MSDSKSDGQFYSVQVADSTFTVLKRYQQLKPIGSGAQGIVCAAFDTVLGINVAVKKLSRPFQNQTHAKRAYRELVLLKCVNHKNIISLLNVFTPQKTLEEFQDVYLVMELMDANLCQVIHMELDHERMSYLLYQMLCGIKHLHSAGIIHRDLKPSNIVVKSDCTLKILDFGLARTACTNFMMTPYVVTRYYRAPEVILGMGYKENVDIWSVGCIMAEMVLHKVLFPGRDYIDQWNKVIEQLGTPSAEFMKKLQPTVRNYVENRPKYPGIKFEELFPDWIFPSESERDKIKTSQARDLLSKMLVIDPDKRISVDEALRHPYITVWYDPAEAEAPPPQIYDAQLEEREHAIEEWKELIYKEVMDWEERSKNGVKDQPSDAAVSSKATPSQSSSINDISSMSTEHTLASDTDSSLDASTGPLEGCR

Q: What does the source list for `Cc1cccc(-c2noc(-c3cccc4c(=O)c(C)c(-c5ccccc5)oc34)n2)c1`?
A: Activity (Mus musculus [1]): Active; Activity (BV-2 [2]): Active; Activity (Mus musculus [3]): Active; Activity (BV-2 [4]): Active; inhibition [5]: Active; inhibition (BV-2 [6]): Active; Activity (Microglia [7]): Active; Activity (BV-2 [8]): Active; Activity (BV-2 [9]): Active; Activity (BV-2 [10]): Active; Activity (BV-2 [11]): Active; inhibition [12]: Active; Activity (Mus musculus [13]): Active; Activity (Microglia [14]): Active; Activity (BV-2 [15]): Active; Activity (Mus musculus [16]): Active; Activity (BV-2 [17]): Active; Activity (BV-2 [18]): Non-Toxic; Activity (Mus musculus [19]): Active; Activity (BV-2 [20]): Active; Activity (BV-2 [21]): Active; Activity (BV-2 [22]): 64.2%; inhibition (BV-2 [23]): Active; Activity (BV-2 [24]): Active; inhibition (BV-2 [25]): Active; Activity (BV-2 [26]): Active; Activity (BV-2 [27]): Active
